From publication PMC10743905, “Design, Synthesis, and In Vitro and In Vivo Bioactivity Studies of Hydrazide–Hydrazones of 2,4-Dihydroxybenzoic Acid” (International Journal of Molecular Sciences, 2023)
In brackets after ≈: the same amount, converted by molar mass.

Tests used:
[1] = system: Candida albicans ATCC 10231; experiment: Broth microdilution MIC/MFC; format: cell-based
In short: (§1)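 Compounds in DMSO were two-fold diluted in Mueller-Hinton broth (bacteria) or RPMI 1640 with MOPS (fungi), final 1000 to 0.488 µg/ml.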

[2] = system: Candida glabrata ATCC 90030; experiment: Broth microdilution MIC/MFC; format: cell-based; settings: Nakaseomyces glabratus, ATCC90030, read-out: MIC
In short: as §1

[3] = system: Candida albicans ATCC 2091; experiment: Broth microdilution MIC/MFC; format: cell-based
In short: as §1

[4] = system: Candida krusei ATCC 14243; experiment: Broth microdilution MIC/MFC; format: cell-based; settings: Pichia kudriavzevii, ATCC14243, read-out: MIC
In short: as §1

[5] = system: Candida parapsilosis ATCC 22019; experiment: Broth microdilution MIC/MFC; format: cell-based; settings: Lodderomyces parapsilosis, ATCC22019, read-out: MIC
In short: as §1

[6] = system: Micrococcus luteus ATCC 10240; experiment: Broth microdilution MIC/MBC; format: cell-based
In short: as §1

[7] = system: Staphylococcus aureus ATCC 29213; experiment: Broth microdilution MIC/MBC; format: cell-based
In short: as §1

[8] = system: Pseudomonas aeruginosa ATCC 9027; experiment: Broth microdilution MIC/MBC; format: cell-based; settings: ATCC9027
In short: as §1

[9] = system: Staphylococcus epidermidis ATCC 12228; experiment: Broth microdilution MIC/MBC; format: cell-based
In short: as §1

[10] = system: Salmonella typhimurium ATCC 14028; experiment: Broth microdilution MIC/MBC; format: cell-based; settings: Salmonella enterica
In short: as §1

[11] = system: Staphylococcus aureus ATCC 43300; experiment: Broth microdilution MIC/MBC; format: cell-based; settings: Staphylococcus aureus ATCC 43300 (MRSA)
In short: as §1

[12] = system: Proteus mirabilis ATCC 12453; experiment: Broth microdilution MIC/MBC; format: cell-based; settings: ATCC12453
In short: as §1

[13] = system: Bacillus subtilis ATCC 6633; experiment: Broth microdilution MIC/MBC; format: cell-based
In short: as §1

[14] = system: Bordetella bronchiseptica ATCC 4617; experiment: Broth microdilution MIC/MBC; format: cell-based; settings: ATCC4617
In short: as §1

[15] = system: Klebsiella pneumoniae ATCC 13883; experiment: Broth microdilution MIC/MBC; format: cell-based; settings: ATCC13883
In short: as §1

[16] = system: Enterococcus faecalis ATCC 29212; experiment: Broth microdilution MIC/MBC; format: cell-based
In short: as §1

[17] = system: Bacillus cereus ATCC 10876; experiment: Broth microdilution MIC/MBC; format: cell-based
In short: as §1

[18] = system: Escherichia coli ATCC 25922; experiment: Broth microdilution MIC/MBC; format: cell-based; settings: ATCC25922
In short: as §1

COc1cc(/C=N/NC(=O)c2ccc(O)cc2O)cc(I)c1O [Compound 16, 2,4-dihydroxy-N-[(4-hydroxy-3-iodo-5-methoxyphenyl)methylidene]benzohydrazide]
MFC/MIC [1]: > 1 | MFC ([1]; ATCC10231, read-out: MFC): > 1000 µg/mL | MIC ([1]; ATCC10231, read-out: MIC): 1000 µg/mL (≈ 2340 µM) | MIC [2]: > 1000 µg/mL | MFC/MIC [3]: > 4 | MFC ([3]; ATCC2091, read-out: MFC): > 1000 µg/mL | MIC ([3]; ATCC2091, read-out: MIC): 250 µg/mL (≈ 584 µM) | MIC [4]: > 1000 µg/mL | MIC [5]: > 1000 µg/mL | MBC/MIC [6]: > 4 | MBC ([6]; ATCC10240): > 1000 µg/mL | MIC ([6]; ATCC10240, read-out: MIC): 250 µg/mL (≈ 584 µM) | MBC/MIC [7]: > 1 | MBC ([7]; ATCC29213): > 1000 µg/mL | MIC ([7]; ATCC29213): 1000 µg/mL (≈ 2340 µM) | MIC [8]: > 1000 µg/mL | MBC/MIC [9]: > 1 | MBC ([9]; ATCC12228): > 1000 µg/mL | MIC ([9]; ATCC12228, read-out: MIC): 1000 µg/mL (≈ 2340 µM) | MIC [10]: > 1000 µg/mL | MIC [11]: > 1000 µg/mL | MIC [12]: > 1000 µg/mL | MBC/MIC [13]: > 4 | MBC ([13]; ATCC6633): > 1000 µg/mL | MIC ([13]; ATCC6633, read-out: MIC): 250 µg/mL (≈ 584 µM) | MIC [14]: > 1000 µg/mL | MIC [15]: > 1000 µg/mL | MBC/MIC [16]: > 1 | MBC ([16]; ATCC29212, read-out: MBC): > 1000 µg/mL | MIC ([16]; ATCC29212, read-out: MIC): 1000 µg/mL (≈ 2340 µM) | MBC/MIC [17]: > 1 | MBC ([17]; ATCC10876): > 1000 µg/mL | MIC ([17]; ATCC10876, read-out: MIC): 1000 µg/mL (≈ 2340 µM) | MIC [18]: > 1000 µg/mL | melting point: 255 °C
